Test system: 885512-296-R-J2-PDC complex spheroid viability
Experiment: Anticancer human tumor 885512-296-R-J2-PDC patient-derived breast carcinoma cell line growth inhibition
Conditions: for IC50: curve of first compound; for viability, T/C: stronger effect = lower value
Procedure, shortened: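 Multicellular complex spheroids of tumor cells with human endothelial cells (HUVEC) and mesenchymal stem cells; the LSD1 inhibitor iadademstat was combined with standard-of-care or investigational agents. Top concentration at or near clinical Cmax, half-log dilutions; final DMSO ≤0.25%.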
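Further: spheroids exposed to agents for 7 days before viability read.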

For `O=C(c1cc(Cc2n[nH]c(=O)c3ccccc23)ccc1F)N1CCN(C(=O)C2CC2)CC1` + NC1CCC(NC2CC2c2ccccc2)CC1, the IC50 (second compound 0.1 µM) was 630 nM, the IC50 (second compound 0.316 µM) was 519 nM and the IC50 (second compound 1 µM) was 563 nM. For the same molecule, the IC50 (second compound 3.16 µM) was 583 nM, the IC50 (second compound 10 µM) was 335 nM and the viability, T/C (second compound 0.1 µM, first compound 0.0316 µM) was 104%. The viability, T/C (second compound 0.1 µM, first compound 0.1 µM) was 113%, the viability, T/C (second compound 0.1 µM, first compound 0.316 µM) was 78.7% and the viability, T/C (second compound 0.1 µM, first compound 1 µM) was 31.2%. It also gave a viability, T/C (second compound 0.1 µM, first compound 3.16 µM) of 10.8%, a viability, T/C (second compound 0.1 µM, first compound 10 µM) of 12.9% and a viability, T/C (second compound 0.316 µM, first compound 0.0316 µM) of 111%. The viability, T/C (second compound 0.316 µM, first compound 0.1 µM) was 98.2%, the viability, T/C (second compound 0.316 µM, first compound 0.316 µM) was 72.1% and the viability, T/C (second compound 0.316 µM, first compound 1 µM) was 21.8%. The viability, T/C (second compound 0.316 µM, first compound 3.16 µM) was 8.68%, the viability, T/C (second compound 0.316 µM, first compound 10 µM) was 10.8% and the viability, T/C (second compound 1 µM, first compound 0.0316 µM) was 84.7%. It also gave a viability, T/C (second compound 1 µM, first compound 0.1 µM) of 101%, a viability, T/C (second compound 1 µM, first compound 0.316 µM) of 67.5% and a viability, T/C (second compound 1 µM, first compound 1 µM) of 30.7%. The viability, T/C (second compound 1 µM, first compound 3.16 µM) was 10.9%, the viability, T/C (second compound 1 µM, first compound 10 µM) was 7.07% and the viability, T/C (second compound 3.16 µM, first compound 0.0316 µM) was 100%. It also gave a viability, T/C (second compound 3.16 µM, first compound 0.1 µM) of 98.8%, a viability, T/C (second compound 3.16 µM, first compound 0.316 µM) of 75.5% and a viability, T/C (second compound 3.16 µM, first compound 1 µM) of 27.5%. It also gave a viability, T/C (second compound 3.16 µM, first compound 3.16 µM) of 7.3%, a viability, T/C (second compound 3.16 µM, first compound 10 µM) of 5.31% and a viability, T/C (second compound 10 µM, first compound 0.0316 µM) of 96.1%. It also gave a viability, T/C (second compound 10 µM, first compound 0.1 µM) of 74.6%, a viability, T/C (second compound 10 µM, first compound 0.316 µM) of 53.7% and a viability, T/C (second compound 10 µM, first compound 1 µM) of 26.1%. It also gave a viability, T/C (second compound 10 µM, first compound 3.16 µM) of 7.89% and a viability, T/C (second compound 10 µM, first compound 10 µM) of 3.97%.

Reference: PubChem BioAssay AID1918946 (Molecular Pharmacology Branch, DTP, NCI, 2023)
